One assay deals with T1, JAK-3 (Homo sapiens, UniProt P52333).
T1 sequence (P52333 1-1124): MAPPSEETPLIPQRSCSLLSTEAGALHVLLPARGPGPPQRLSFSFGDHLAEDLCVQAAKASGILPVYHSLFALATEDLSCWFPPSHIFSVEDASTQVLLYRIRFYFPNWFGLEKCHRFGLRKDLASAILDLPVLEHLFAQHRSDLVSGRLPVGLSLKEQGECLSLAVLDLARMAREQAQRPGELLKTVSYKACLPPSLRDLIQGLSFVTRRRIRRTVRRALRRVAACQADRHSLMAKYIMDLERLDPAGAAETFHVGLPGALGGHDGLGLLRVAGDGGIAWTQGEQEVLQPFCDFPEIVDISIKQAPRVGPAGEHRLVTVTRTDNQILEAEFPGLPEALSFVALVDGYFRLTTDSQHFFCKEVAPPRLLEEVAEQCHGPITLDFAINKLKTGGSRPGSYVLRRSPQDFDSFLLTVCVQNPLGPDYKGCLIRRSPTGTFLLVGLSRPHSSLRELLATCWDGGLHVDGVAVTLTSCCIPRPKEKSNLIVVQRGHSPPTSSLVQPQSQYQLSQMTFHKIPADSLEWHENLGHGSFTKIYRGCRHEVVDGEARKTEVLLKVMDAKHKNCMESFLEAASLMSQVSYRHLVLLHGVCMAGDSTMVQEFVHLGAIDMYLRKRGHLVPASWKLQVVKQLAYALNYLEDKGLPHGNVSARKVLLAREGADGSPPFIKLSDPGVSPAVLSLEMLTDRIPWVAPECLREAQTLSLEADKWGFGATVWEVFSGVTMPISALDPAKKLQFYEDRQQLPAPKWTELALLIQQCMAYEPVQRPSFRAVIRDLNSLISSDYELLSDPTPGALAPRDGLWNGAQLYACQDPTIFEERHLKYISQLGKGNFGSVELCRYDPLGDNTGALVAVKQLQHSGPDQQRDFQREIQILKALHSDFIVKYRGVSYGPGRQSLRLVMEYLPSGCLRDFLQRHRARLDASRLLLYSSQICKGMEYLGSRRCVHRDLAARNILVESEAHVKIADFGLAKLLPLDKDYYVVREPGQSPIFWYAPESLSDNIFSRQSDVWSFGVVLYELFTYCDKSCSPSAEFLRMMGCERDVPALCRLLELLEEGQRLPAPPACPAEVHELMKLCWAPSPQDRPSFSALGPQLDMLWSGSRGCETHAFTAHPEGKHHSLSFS
Nature of the assay: JAK-3 inhibition assay. The assay is classed as biochemical. The method, then: Compounds were screened for their ability to inhibit JAK using the assay shown below. Reactions were carried out in a kinase buffer containing 100 mM HEPES (pH 7.4), 1 mM DTT, 10 mM MgCl2, 25 mM NaCl, and 0.01% BSA.
Substrate concentrations in the assay were 5 μM ATP (200 μCi/μmole ATP) and 1 μM poly(Glu)4Tyr. Reactions were carried out at 25° C. and 1 nM JAK-3.
To each well of a 96 well polycarbonate plate was added 1.5 μL of a candidate JAK-3 inhibitor along with 50 μL of kinase buffer containing 2 μM poly(Glu)4Tyr and 10 μM ATP. This was then mixed and 50 μL of kinase buffer containing 2 nM JAK-3 enzyme was added to start the reaction. After 20 minutes at room temperature (25° C.), the reaction was stopped with 50 μL of 20% trichloroacetic acid (TCA) that also contained 0.4 mM ATP. The entire contents of each well were then transferred to a 96 well glass fiber filter plate using a TomTek Cell Harvester. After washing, 60 μL of scintillation fluid was added and ^33P incorporation detected on a Perkin Elmer TopCount. After removing the mean background values for all of the data points, the data were fit using Prism software to obtain a Ki value (app).

The next assay deals with JAK-2 (Homo sapiens, UniProt O60674). Nature of the assay: JAK-2 inhibition assay. It is filed as biochemical.
Sequence of JAK-2 (O60674 whole entry): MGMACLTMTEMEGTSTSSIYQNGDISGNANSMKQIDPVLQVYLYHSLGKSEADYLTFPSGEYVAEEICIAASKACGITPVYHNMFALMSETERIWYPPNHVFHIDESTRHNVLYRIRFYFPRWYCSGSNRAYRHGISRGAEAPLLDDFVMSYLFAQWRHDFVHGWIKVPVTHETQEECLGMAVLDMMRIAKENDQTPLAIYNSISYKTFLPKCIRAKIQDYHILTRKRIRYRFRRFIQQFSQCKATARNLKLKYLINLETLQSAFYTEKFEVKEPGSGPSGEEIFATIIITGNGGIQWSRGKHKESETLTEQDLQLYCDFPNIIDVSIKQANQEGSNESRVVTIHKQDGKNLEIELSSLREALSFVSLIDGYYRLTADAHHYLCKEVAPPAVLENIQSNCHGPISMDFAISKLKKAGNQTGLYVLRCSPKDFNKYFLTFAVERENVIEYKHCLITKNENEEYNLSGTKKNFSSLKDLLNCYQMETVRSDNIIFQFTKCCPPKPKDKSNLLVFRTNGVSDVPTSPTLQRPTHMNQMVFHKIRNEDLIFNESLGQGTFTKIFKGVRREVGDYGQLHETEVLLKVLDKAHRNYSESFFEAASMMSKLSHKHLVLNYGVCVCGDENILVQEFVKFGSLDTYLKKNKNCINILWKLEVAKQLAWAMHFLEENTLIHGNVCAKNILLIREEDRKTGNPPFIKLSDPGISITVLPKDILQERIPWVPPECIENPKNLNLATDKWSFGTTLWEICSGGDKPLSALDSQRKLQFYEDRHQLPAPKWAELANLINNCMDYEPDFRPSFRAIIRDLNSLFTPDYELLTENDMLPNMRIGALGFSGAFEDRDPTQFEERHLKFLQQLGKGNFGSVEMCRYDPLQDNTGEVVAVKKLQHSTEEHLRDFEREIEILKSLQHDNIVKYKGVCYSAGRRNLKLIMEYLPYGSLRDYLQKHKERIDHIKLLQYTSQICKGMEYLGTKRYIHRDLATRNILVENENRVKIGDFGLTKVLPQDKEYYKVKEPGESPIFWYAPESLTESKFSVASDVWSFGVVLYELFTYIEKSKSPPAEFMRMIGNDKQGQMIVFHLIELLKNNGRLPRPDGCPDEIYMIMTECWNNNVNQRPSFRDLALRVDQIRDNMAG

For `Oc1c(F)cc(C2Nc3ccccc3-c3ncnc4[nH]cc2c34)cc1F` (stereo not shown) [Compound 115], the Ki at JAK-3 is ≤ 250 nM; on JAK-2 it was < 250 nM.

Turning to `Oc1ccc(C2Nc3ccccc3-c3ccnc4[nH]cc2c34)c(Cl)c1` (stereo not shown) [Compound 46], the Ki was ≤ 250 nM at JAK-3 and < 250 nM at JAK-2.

For `Fc1cccc(C2Nc3ccccc3-c3ccnc4[nH]cc2c34)c1F` (stereo not shown) [Compound 25], the Ki at JAK-3 was 250 to 2500 nM; at JAK-2, < 250 nM.

On to `COc1cc(C2Nc3ccccc3-c3ccnc4[nH]cc2c34)cc(F)c1O` (stereo not shown) [Compound 68], for which the values for the Ki at JAK-3 and on JAK-2 were ≤ 250 nM and < 250 nM, respectively.

As for `OB(O)c1ccc(C2Nc3ccccc3-c3ccnc4[nH]cc2c34)cc1` (stereo not shown) [Compound 128], the Ki on JAK-3 was ≤ 250 nM; on JAK-2 it was < 250 nM.

With `[O-][n+]1ccc(C2Nc3ccccc3-c3ccnc4[nH]cc2c34)cc1` (stereo not shown) [Compound 122], the Ki on JAK-3 and at JAK-2 was > 2500 nM throughout.

`c1ccc(C2Nc3ccccc3-c3ccnc4[nH]cc2c34)nc1` (stereo not shown) [Compound 37]: the Ki on JAK-3 and at JAK-2 was > 2500 nM throughout.

As for `O=[N+]([O-])c1ccccc1C1Nc2ccccc2-c2ccnc3[nH]cc1c23` (stereo not shown) [Compound 35], the Ki at JAK-3 and on JAK-2 was 250 to 2500 nM in each case.

With `c1ccc2c(c1)NC(c1ccc(-n3ccnc3)cc1)c1c[nH]c3nccc-2c13` (stereo not shown) [Compound 119], the Ki at JAK-3 and at JAK-2 was 250 to 2500 nM in each case.

As to `COc1ccccc1C1Nc2ccccc2-c2ccnc3[nH]cc1c23` (stereo not shown) [Compound 9], the Ki at JAK-3 and on JAK-2 was 250 to 2500 nM in each case.

Turning to `Oc1ccc(C2Nc3ccccc3-c3c(Cl)cnc4[nH]cc2c34)c(Cl)c1` (stereo not shown) [Compound 53], the Ki on JAK-3 was ≤ 250 nM; on JAK-2, < 250 nM.

Consider `Fc1cccc(F)c1C1Nc2ccccc2-c2ccnc3[nH]cc1c23` (stereo not shown) [Compound 18], for which the Ki was 250 to 2500 nM at JAK-3 and < 250 nM at JAK-2.

As for `CN(C(=O)Oc1ccc(C2Nc3ccccc3-c3ccnc4[nH]cc2c34)cc1F)c1ccccc1` (stereo not shown) [Compound 162], the inhibition constant (Ki) at JAK-3 and at JAK-2 was 250 to 2500 nM each time.

As for `Clc1ccccc1C1Nc2ccccc2-c2ccnc3[nH]cc1c23` (stereo not shown) [Compound 17], the Ki at JAK-3 and at JAK-2 was 250 to 2500 nM throughout.

For `CS(=O)(=O)c1ccc(C2Nc3ccccc3-c3ccnc4[nH]cc2c34)cc1` (stereo not shown) [Compound 121], the inhibition constant (Ki) at JAK-3 and at JAK-2 was > 2500 nM each time.

For the compound `COc1cc(C2Nc3ccccc3-c3ncnc4[nH]cc2c34)ccc1O` (stereo not shown) [Compound 84], the Ki on JAK-3 is ≤ 250 nM; on JAK-2, < 250 nM.

On to `Oc1ccc(C2Nc3ncccc3-c3ccnc4[nH]cc2c34)c(Cl)c1` (stereo not shown) [Compound 57], for which the inhibition constant (Ki) at JAK-3 was ≤ 250 nM; on JAK-2, < 250 nM.

On to `O=C(OCc1ccccc1)N1CCC(C2Nc3ccccc3-c3ccnc4[nH]cc2c34)CC1` (stereo not shown) [Compound 89], for which the Ki at JAK-3 is > 2500 nM; at JAK-2, 250 to 2500 nM.

Turning to `Oc1ccc(C2Nc3ccccc3-c3ccnc4[nH]cc2c34)cc1OC(F)(F)F` (stereo not shown) [Compound 114], the Ki at JAK-3 and on JAK-2 was 250 to 2500 nM each time.

`O=C1NC(c2ccc(O)cc2F)c2c[nH]c3nccc(c23)-c2ccccc21` (stereo not shown) [Compound 127]: the values for the Ki at JAK-3 and on JAK-2 were 250 to 2500 nM and < 250 nM, respectively.

With `c1ccc(-c2onc3ccc(C4Nc5ccccc5-c5ccnc6[nH]cc4c56)cc23)cc1` (stereo not shown) [Compound 143], the Ki at JAK-3 and on JAK-2 was > 2500 nM in each case.

Regarding `COC(=O)c1ccc(C2Nc3ccccc3-c3ccnc4[nH]cc2c34)cc1` (stereo not shown) [Compound 87], the Ki at JAK-3 and at JAK-2 was > 2500 nM each time.

For `COc1cc(C2Nc3ccccc3-c3ccnc4[nH]cc2c34)c(Br)cc1O` (stereo not shown) [Compound 76], the results for the Ki on JAK-3 and on JAK-2 were ≤ 250 nM and < 250 nM, respectively.

For the compound `COc1ccc(C2Nc3ccccc3-c3ccnc4[nH]cc2c34)c(OC)c1` (stereo not shown) [Compound 142], the Ki at JAK-3 and at JAK-2 was > 2500 nM throughout.

For the compound `COc1cc(C2Nc3ccccc3-c3ccnc4[nH]cc2c34)ccc1O` (stereo not shown) [Compound 73], the results for the Ki at JAK-3 and at JAK-2 were ≤ 250 nM and < 250 nM, respectively.

As to `Fc1cc(F)c(C2Nc3ccccc3-c3ccnc4[nH]cc2c34)cc1F` (stereo not shown) [Compound 31], the Ki is 250 to 2500 nM at JAK-3 and < 250 nM on JAK-2.

As for `Fc1cccc(C(F)(F)F)c1C1Nc2ccccc2-c2ccnc3[nH]cc1c23` (stereo not shown) [Compound 34], the inhibition constant Ki on JAK-3 and on JAK-2 was 250 to 2500 nM throughout.

Consider `Fc1ccc(C2Nc3ccccc3-c3ccnc4[nH]cc2c34)c(F)c1` (stereo not shown) [Compound 26], for which the values for the Ki at JAK-3 and on JAK-2 were 250 to 2500 nM and < 250 nM, respectively.

With `Cc1ccc(C2Nc3ccccc3-c3ccnc4[nH]cc2c34)cc1` (stereo not shown) [Compound 137], the Ki on JAK-3 was > 2500 nM; at JAK-2, 250 to 2500 nM.

For the compound `Oc1ccc(C2Nc3ncccc3-c3ccnc4[nH]cc2c34)cc1` (stereo not shown) [Compound 97], the Ki is ≤ 250 nM at JAK-3 and < 250 nM at JAK-2.

`Cc1cc(C2Nc3ccccc3-c3ncnc4[nH]cc2c34)ccc1O` (stereo not shown) [Compound 83]: the figures for the Ki on JAK-3 and on JAK-2 were ≤ 250 nM and < 250 nM, respectively.

With `Oc1c(Cl)cc(C2Nc3ccccc3-c3ccnc4[nH]cc2c34)cc1Cl` (stereo not shown) [Compound 67], the Ki on JAK-3 is ≤ 250 nM; at JAK-2, < 250 nM.

For the compound `Clc1cccc(Cl)c1C1Nc2ccccc2-c2ccnc3[nH]cc1c23` (stereo not shown) [Compound 42], the inhibition constant (Ki) at JAK-3 and on JAK-2 was 250 to 2500 nM each time.

On to `O=C(O)C1Nc2ccccc2-c2ccnc3[nH]cc1c23` (stereo not shown) [Compound 23], for which the inhibition constant Ki at JAK-3 and on JAK-2 was 250 to 2500 nM in each case.

For `C1=Nc2ccccc2-c2ccnc3[nH]cc1c23` [Compound 109], the Ki at JAK-3 and on JAK-2 was 250 to 2500 nM throughout.

Turning to `Cc1cc(C2Nc3ccccc3-c3ccnc4[nH]cc2c34)sc1C` (stereo not shown) [Compound 124], the Ki at JAK-3 and at JAK-2 was 250 to 2500 nM each time.

On to `O=[N+]([O-])c1cc(C2Nc3ccccc3-c3ccnc4[nH]cc2c34)ccc1O` (stereo not shown) [Compound 139], for which the Ki at JAK-3 and on JAK-2 was 250 to 2500 nM each time.

Take `c1ccc2c(c1)NC(c1ccc3c(c1)CCO3)c1c[nH]c3nccc-2c13` (stereo not shown) [Compound 141]: the figures for the Ki on JAK-3 and on JAK-2 were 250 to 2500 nM and < 250 nM, respectively.

In the case of `Oc1ccc(C2Nc3ccccc3-c3ncnc4[nH]cc2c34)cc1Cl` (stereo not shown) [Compound 81], the Ki on JAK-3 was ≤ 250 nM; on JAK-2, < 250 nM.

Regarding `c1ccc2c(c1)NCc1c[nH]c3nccc-2c13` [Compound 13], the Ki on JAK-3 and on JAK-2 was 250 to 2500 nM each time.

Consider `Fc1ccc(C2Nc3ccccc3-c3ccnc4[nH]cc2c34)c(Cl)c1` (stereo not shown) [Compound 32], for which the inhibition constant Ki at JAK-3 was > 2500 nM; at JAK-2, 250 to 2500 nM.

`Cn1cc2c3c(ccnc31)-c1cccnc1NC2c1ccc(O)c(Cl)c1` (stereo not shown) [Compound 95]: the Ki was ≤ 250 nM at JAK-3 and < 250 nM at JAK-2.

For `CC(C)(C)c1cc(C2Nc3ccccc3-c3ccnc4[nH]cc2c34)cc(C(C)(C)C)c1O` (stereo not shown) [Compound 108], the Ki at JAK-3 and on JAK-2 was > 2500 nM throughout.

`Clc1ccccc1COc1cccc(C2Nc3ccccc3-c3ccnc4[nH]cc2c34)c1` (stereo not shown) [Compound 131]: the values for the Ki on JAK-3 and at JAK-2 were 250 to 2500 nM and < 250 nM, respectively.

As for `Fc1cc(F)cc(C2Nc3ccccc3-c3ccnc4[nH]cc2c34)c1` (stereo not shown) [Compound 28], the Ki on JAK-3 and at JAK-2 was 250 to 2500 nM throughout.

As for `Fc1ccc(F)c(C2Nc3ccccc3-c3ccnc4[nH]cc2c34)c1F` (stereo not shown) [Compound 30], the Ki is ≤ 250 nM on JAK-3 and < 250 nM on JAK-2.

Consider `Oc1c(Br)cc(C2Nc3ccccc3-c3ccnc4[nH]cc2c34)cc1Br` (stereo not shown) [Compound 78], for which the Ki on JAK-3 and on JAK-2 was 250 to 2500 nM each time.

Broadly, the Ki is the equilibrium dissociation constant of an inhibitor or competing ligand from its target. Low values mean higher affinity, high ones lower affinity.
